Assay results from patent publication US20240109895A1, “OXASPIRO SUBSTITUTED PYRROLOPYRAZOLE DERIVATIVE, INTERMEDIATE THEREOF, AND PREPARATION METHOD THEREFOR” (SHANGHAI HAIYAN PHARMACEUTICAL TECHNOLOGY CO., LTD., priority 2020, published 2024).

Columns and labels:
cAMP = test: HTRF-cAMP cell assay
β-arrestin = β-arrestin cell assay

## CC(C)[C@@H]1C[C@H](NCC[C@@]2(c3ccccn3)CCOC3(CCCC3)C2)c2ccnn21 [Compound I-1]
cAMP; 0.75 h, read-out: cAMP EC50(nM)
  EC50: 6 nM
cAMP; read-out: cAMP Emax(%) Morphine is 100%
  Emax: 86.4%
β-arrestin; 1.5 h, read-out: β-arrestin Emax(%) Morphine is 100%
  Emax: 1.3%
β-arrestin; comparison of Table 1 and Table 2
  bias (cAMP versus β-arrestin): good bias
